Active and inactive are the calls of the source.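 How the source made its calls: active means IC50 of 10 µM or lower; inactive means IC50 above 10 µM.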
Test system: HEK-293 Gal4-VP16 UAS luciferase reporter, luminescence
Assay: VP16 transactivation inhibitor potency, dose response, counter-screen for SRC1 inhibitor project, cell-based, luminescence, high throughput, SRC1 series (AID 602236);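 further: inhibitor potency where hits lower luciferase light from Gal4-VP16 transactivation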

SMILES	IC50
COc1ccc2c(C#N)c3ccccn3c2c1	> 35.8 µM (inactive)
COC(CN(C(=O)CCl)C(C(=O)NC1CCCCC1)c1ccccc1C)OC (configuration not stated)	8.47 µM
CN(Cc1cnc2nc(N)nc(N)c2n1)c1ccc(C(=O)NC(CCC(=O)O)C(=O)O)c2ccccc12 (configuration not stated)	> 35.9 µM (inactive)
CNc1ncnc(Sc2nc(N)nc3nc[nH]c23)c1[N+](=O)[O-]	5.79 µM
O=C(Nc1cccnc1)c1ccc(C(=O)Nc2cccnc2)cc1	> 35.9 µM (inactive)
O=C(NC1CCCCC1)C(c1cccnc1)N(C(=O)CCl)c1cccc(Cl)c1 (configuration not stated)	4.71 µM
COc1cc2c(cc1OC)C(C)N(C(=O)c1cccc([N+](=O)[O-])c1)CC2 (configuration not stated)	8.73 µM
CCn1c2ccccc2c2cnc(N=CN(C)C)c(C#N)c21	28.9 µM (inactive)
COc1ccc(Cc2nnc(SCc3ccc([N+](=O)[O-])cc3)o2)cc1	15.3 µM (inactive)
Cc1noc(/C=C/c2ccco2)c1S(=O)(=O)N1CCC(C(=O)Nc2ccc(Cl)cn2)CC1	16.1 µM (inactive)
CC(=O)c1cc2c(C)cc(=O)oc2cc1O	29 µM (inactive)
CC1CCN(C(=O)c2scc3c2OCCO3)CC1	16.4 µM (inactive)
CCCCC(CC)COCCCN=Cc1c(O)[nH]c(=S)[nH]c1=O (configuration not stated)	10.5 µM (inactive)
CCOC(=O)c1cccc2c1-c1ccccc1/C2=N/O	8.12 µM
N#Cc1c(-c2ccccc2)c(C#N)c2nc3ccccc3n2c1N	> 35.9 µM (inactive)
O=C(N/N=C/c1cc([N+](=O)[O-])ccc1O)c1cccc(N2CCCC2=O)c1	18.3 µM (inactive)
COC(=O)N(NC(=O)C(O)(CCC(C)C)CCC(C)C)c1ccccc1	> 35.9 µM (inactive)
CCOc1ccc(/C=C2\SC(=S)N(CCCC(=O)NCCCN3CCOCC3)C2=O)cc1	21.9 µM (inactive)
CC(=O)NC(c1cc(Cl)c2cccnc2c1O)C(C)C (configuration not stated)	8.06 µM
CC(=O)c1cccc(NC(=O)COc2cc3oc(=O)c(CC(C)O)c(C)c3cc2Cl)c1 (configuration not stated)	> 35.9 µM (inactive)
CNc1cccnc1C=NNC(N)=S	18.4 µM (inactive)
O=[N+]([O-])c1ccc(N(CCO)CCO)c2c1no[n+]2[O-]	7.87 µM
CCCc1cc(C(=O)N(C)CC(=O)Nc2ccc(OCC)c(OCC)c2)sc1C	> 35.9 µM (inactive)

SMILES	IC50
S=C(Nc1ccccc1)Nc1ccc(OCc2ccc(Cl)cc2Cl)cc1	6.69 µM
O=C(CCl)N1N=C(c2ccco2)CC1c1ccco1 (configuration not stated)	> 12 µM (inactive)
Cc1nc2c(-c3ccc(F)cc3)cnn2c(N)c1-c1ccccc1	14.5 µM (inactive)
O=C(CCl)N1N=C(c2cccs2)CC1c1ccco1 (configuration not stated)	20.2 µM (inactive)
CCN(C(=O)c1cc(S(=O)(=O)N2CCCCC2)c[nH]1)c1ccc(OC)cc1	12.8 µM (inactive)
COc1cc(/C=C2\SC(N)=NC2=O)cc(OC)c1	8.33 µM
C=CCn1c(O)c(C(C)=NCc2cc(OC)cc(OC)c2)c(=O)[nH]c1=O	7.94 µM
COc1ccccc1CNC(=O)C(=O)NCCC1CCCCN1S(=O)(=O)c1ccc(C)cc1 (configuration not stated)	23.1 µM (inactive)
Cc1ccc(N=c2c([N+](=O)[O-])nn(-c3ccc4c(c3)OCCO4)n2O)cc1F	27 µM (inactive)
NC(=O)c1cc(Sc2ccccc2)nc2ccccc12	11.6 µM (inactive)
CC(C)(C)OC(=O)NCC(=O)Oc1cc2oc(=O)cc(-c3ccccc3)c2cc1Cl	21.8 µM (inactive)
C=CCNc1ncnc2ccc(Br)cc12	5.96 µM
Fc1cccc(CSc2nnc3ccc(-c4ccncc4)nn23)c1	> 35.8 µM (inactive)
CCOc1cccc(/C=N/NC(=O)c2cccnc2)c1O	8.44 µM
COc1cc2c(cc1OC)C(NC(=O)C(F)(F)F)CNC2=O (configuration not stated)	10.8 µM (inactive)
COc1ccc(CNc2ncc(-c3ccc(F)cc3)n2C)c2ccccc12	> 35.9 µM (inactive)
N#Cc1c2ccc(O)cc2n2ccccc12	> 35.9 µM (inactive)
O=C(OC(c1ccccc1)c1nccc2ccccc12)c1ccccc1 (configuration not stated)	23.9 µM (inactive)
O=C(CCCc1nc(-c2ccccc2Cl)no1)NC1CCCC1	13.6 µM (inactive)
CCc1nc(N)nc(N)c1-c1ccc(Cl)c([N+](=O)[O-])c1	> 35.8 µM (inactive)
COc1ccccc1/C=C\C(=O)NCC(=O)N/N=C/c1cccc(OC)c1O	15.5 µM (inactive)
c1cnc2ccc(-n3ccnc3)cc2c1	9.58 µM
Cc1nc(N2CCC(C(N)=O)CC2)c2c(-c3cccs3)csc2n1	11.6 µM (inactive)

SMILES	IC50
c1cc2[nH]snc2c2nc(C3CC3)nc12	3.5 µM
Cc1cc(=O)[nH]c(Nc2cccc(Br)c2)n1	9.71 µM
O=C1c2cccc(OCc3ccc(F)cc3)c2CCN1Cc1ccccc1	10.7 µM (inactive)
Nc1ncccc1C(=O)OCC(=O)N1CCN(S(=O)(=O)c2ccc(Cl)cc2)CC1	12.8 µM (inactive)
COc1ccc(NC(=O)CN(C)C(=O)C2(c3ccccc3)CCCC2)cc1	36.3 µM (inactive)
O=C(CCC1CCCC1)Nc1ccc(C(=O)NCc2cccnc2)cc1	7.75 µM
O=c1ccc2c(ccc3ncccc32)o1	18.1 µM (inactive)
COc1ccc2ncn(-c3ccccc3)c2c1	5.95 µM
O=C(CCl)NC(Cc1ccccc1)c1ccccc1 (configuration not stated)	20.8 µM (inactive)
COc1ccc(/C=C2/SC(=S)N(CCC(=O)O)C2=O)cc1	> 35.9 µM (inactive)
CCc1ccc(/C=C2\SC(=S)N(CCCC(=O)NCCCN3CCOCC3)C2=O)cc1	12.7 µM (inactive)
C=C1C(=O)[C@@]23C[C@H]4[C@@H]5[C@@]6(C)CCC[C@@]57[C@@H]2[C@@H](O)[C@@H]1C[C@H]3[C@H]7N4C6	8.05 µM
CC(NC(=O)COC(=O)c1cccs1)c1ccccc1 (configuration not stated)	> 35.9 µM (inactive)
COc1cc(C2c3cc4c(cc3C(OC3OC5COC(c6cccs6)OC5C(O)C3O)C3COC(=O)C23)OCO4)cc(OC)c1O (configuration not stated)	> 35.9 µM (inactive)
S=C(c1ccc(-c2ccccc2)cc1)N1CCOCC1	24 µM (inactive)
O=C(CCC(=O)Nc1ccc(Br)cc1)N/N=C/c1ccccc1O	4.9 µM
NS(=O)(=O)c1ccc(Nc2nc(-c3cccnc3)cs2)cc1	> 35.8 µM (inactive)
CC(C)(C)c1cc(C(=O)N/N=C/c2ccc(O)cc2)n(-c2ccccc2)n1	21.9 µM (inactive)
Cc1ccc(/C=C2\SC(=S)N(CCCC(=O)NC3CCCC3)C2=O)cc1	5.37 µM
COc1cc(/C=C2\CC(C(C)(C)C)C/C(=C\c3cc(OC)c(OC)c(OC)c3)C2=O)cc(OC)c1OC (configuration not stated)	5.96 µM
CCn1c(Oc2cccc(Br)c2)nc2c1c(=O)n(C)c(=O)n2C	25.8 µM (inactive)
CN(CC(=O)Nc1ccc(Cl)c(C(F)(F)F)c1)C(=O)C1CC(=O)N(c2ccc3c(c2)OCCO3)C1 (configuration not stated)	25.1 µM (inactive)
Cc1ccc2nc(C(F)(F)F)c(C#N)c(N)c2c1	10.4 µM (inactive)

SMILES	IC50
CCC(=O)Oc1c(C(=O)CC)cc2c(C)cc(=O)oc2c1C	18.9 µM (inactive)
Cn1nc(C(F)(F)F)c(C#N)c1N1CCN(c2ccc(F)cc2)CC1	7.86 µM
Cc1c(C(=O)N/N=C/C(C)C)[nH]c2ccc([N+](=O)[O-])cc12	21.3 µM (inactive)
Fc1ccc(CSc2nnc(-c3ccncc3)o2)cc1	7.85 µM
c1cc2c(cn1)cnc1cscc12	11.8 µM (inactive)
Cc1nc2sc(C(N)=O)c(N)c2c(C)c1CC(=O)c1ccccc1	> 35.9 µM (inactive)
Nc1nc(CCl)nc(Nc2cccc3ccccc23)n1	11.1 µM (inactive)
O=C(NC(NC(=S)N1CCOCC1)C(Cl)(Cl)Cl)c1ccc(Cl)cc1 (configuration not stated)	15.5 µM (inactive)
Cc1cc(/C=C2\Cc3ccccc3C2=O)c(C)n1-c1ccccc1	> 35.9 µM (inactive)
COc1cccc(/C=N/NC(=O)CNC(=O)C2COc3ccccc3O2)c1O (configuration not stated)	11.1 µM (inactive)
COc1ccc(OC)c(/C=C2\NC(=O)NC2=O)c1	10.8 µM (inactive)
Cc1ccc(C)c(NC(=O)c2ccccc2NS(=O)(=O)c2cc([N+](=O)[O-])ccc2C)c1	3.98 µM
CCOc1cc(C(N)=O)cc(Br)c1OC	17.1 µM (inactive)
COc1ccc(C(O)(C(C)C)C(CN2CCOCC2)c2ccc(Cl)cc2)cc1 (configuration not stated)	20 µM (inactive)
Cc1cccc(C)c1-n1nnnc1C(c1cccs1)N1CCC2(CC1)C(=O)NCN2c1ccccc1 (configuration not stated)	14.4 µM (inactive)
O=C(Nc1nc(-c2ccccn2)cs1)c1cccc(S(=O)(=O)N2CCOCC2)c1	8.59 µM
COc1ccc(-n2cnc(N)c2C(=O)c2cccc([N+](=O)[O-])c2)cc1	15.7 µM (inactive)
O=C(Nc1cccc2c1CCCC2)c1cc([N+](=O)[O-])ccc1Cl	9.3 µM
CCCCC(=O)Nc1cccn2ncnc12	> 35.9 µM (inactive)
COc1cccc(CNc2ncnc3ccc(-c4c(C)noc4C)cc23)c1	> 35.9 µM (inactive)
CCOc1cccc(/C=N/NC(=O)c2cc(C3CC3)[nH]n2)c1O	11.2 µM (inactive)
O=C(O)c1ccccc1C(=O)Nc1ccc(Oc2cccc3ccccc23)cc1	> 35.9 µM (inactive)
NC(=S)NN=Cc1ccc(OC(=O)COc2cc(Cl)c(Cl)cc2Cl)cn1	> 35.9 µM (inactive)

— PubChem BioAssay AID602236 (The Scripps Research Institute Molecular Screening Center, 2012)
